Where two headings read alike, the source gives them in different places.
How the values were obtained:
[1] = test system: acutely dissociated and purified rat OPCs; assay: Acute OL differentiation assay (MBP expression/cell, immunofluorescent image quantification); format: cell-based; conditions: sheet "All OLga data"; for activation at 2 µM / activation at 10 µM / activation at 0.4 µM / activation at 0.08 µM: Rattus norvegicus; for activation at 0.08 µM: test compound at 0.08 uM, read-out: 0.08 uM (% Quet)
Summary of the method: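 Oligodendrocyte precursor cells were enriched from P6-P7 Sprague–Dawley rat brains by immunopanning (RAN-2 and GalC depletion, O4 selection), plated at 5000 cells/well in serum-free, mitogen-free differentiation media on PDL/laminin 96-well view plates, centrifuged at 200×g, and pre-incubated 1–2 h before test compounds were added in quadruplicate. On DIV4, cells were fixed, stained for MBP and DAPI, imaged automatically, and MBP expression per cell was quantified.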

expanded OPCs = assay: cells; conditions: for viability at 0.1 µM / viability at 1 µM / viability at 10 µM: Rattus norvegicus, 72 h
Summary of the method: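 Expanded OPCs seeded at 10,000 cells/well in differentiation media, then exposed to NCC library compounds at 10, 1 and 0.1 µM (quadruplicate, 0.1% DMSO) for three days. Viability read as alamarBlue fluorescence (560/590 nm) after 4 h at 37 °C; tunicamycin 5 ng/ml served as toxicity control.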

[2] = 2 uM test compound, relative to quetiapine, read-out: OL differentiation, 2 uM (% Quet)
[3] = read-out: 0.1 µM (% DMSO), alamarBlue viability, NCC library compound at 0.1 µM, sheet "All Tox data"
[4] = read-out: 1 µM (% DMSO), alamarBlue viability, NCC library compound at 1 µM, sheet "All Tox data"
[5] = read-out: 10 µM (% DMSO), alamarBlue viability, NCC library compound at 10 µM, sheet "All Tox data"
[6] = test compound at 0.4 uM, MBP expression relative to quetiapine, NCC library screen, read-out: 0.4 uM (% Quet)
[7] = test compound at 2 uM, MBP expression relative to quetiapine, NCC library screen, read-out: 2 uM (% Quet)
[8] = alamarBlue viability of expanded OPCs, compound at 0.1 µM, relative to DMSO control
[9] = alamarBlue viability of expanded OPCs, compound at 1 µM, relative to DMSO control
[10] = alamarBlue viability of expanded OPCs, compound at 10 µM, relative to DMSO control
[11] = 0.4 uM test compound, relative to quetiapine, read-out: OL differentiation, 0.4 uM (% Quet)
[12] = read-out: 0.1 µM (% DMSO), alamarBlue viability of expanded OPCs, compound at 0.1 µM, sheet All Tox data
[13] = read-out: 1 µM (% DMSO), alamarBlue viability of expanded OPCs, compound at 1 µM, sheet All Tox data
[14] = read-out: 10 µM (% DMSO), alamarBlue viability of expanded OPCs, compound at 10 µM, sheet All Tox data
[15] = test compound at 10 uM, MBP expression relative to quetiapine, NCC library screen, read-out: 10 uM (% Quet)
[16] = test compound at 2 uM, NCC library screen, relative to quetiapine, read-out: 2 uM (% Quet)
[17] = test compound at 10 uM, NCC library screen, relative to quetiapine, read-out: 10 uM (% Quet)
[18] = MBP expression relative to quetiapine, NCC library screen

CCOC(=O)O[C@]1(C(=O)OCCl)CC[C@H]2[C@@H]3CCC4=CC(=O)C=C[C@]4(C)[C@H]3[C@@H](O)C[C@@]21C [Loteprednol etabonate]
activation at 2 µM [1, 2]: -10.9% | activation at 10 µM ([1]; 10 uM test compound, relative to quetiapine, read-out: OL differentiation, 10 uM (% Quet)): -29.2% | viability at 0.1 µM (expanded OPCs; [3]): 104% | viability at 1 µM (expanded OPCs; [4]): 98.4% | viability at 10 µM (expanded OPCs; [5]): 86.4%

CC[C@H](C)C(=O)O[C@H]1C[C@@H](C)C=C2C=C[C@H](C)[C@H](CC[C@@H]3C[C@@H](O)CC(=O)O3)[C@H]21 [Lovastatin]
activation at 0.4 µM [1, 6]: -70.9% | activation at 2 µM [1, 7]: -93.2% | 0.1 µM (% DMSO) (expanded OPCs; [8]): 147.6 % DMSO | 1 µM (% DMSO) (expanded OPCs; [9]): 99.7 % DMSO | 10 µM (% DMSO) (expanded OPCs; [10]): 46.0 % DMSO

CN1CCN(C2=Nc3ccccc3Oc3ccc(Cl)cc32)CC1 [Loxapine]
activation at 0.4 µM [1, 11]: -5.9% | activation at 2 µM [1, 2]: -18.5% | viability at 0.1 µM (expanded OPCs; [12]): 85.7% | viability at 1 µM (expanded OPCs; [13]): 71.4% | viability at 10 µM (expanded OPCs; [14]): 29%

CC(C)c1ccc2c(c1)c(SC(C)(C)C)c(CC(C)(C)C(=O)O)n2Cc1ccc(Cl)cc1 [MK 886]
0.4 uM (% Quet) ([1]; test compound at 0.4 uM, NCC library screen, relative to quetiapine): 51.1 % Quet | 2 uM (% Quet) ([1]; test compound at 2 uM, NCC library screen, relative to quetiapine): -93.5 % Quet | 0.1 µM (% DMSO) (expanded OPCs; alamarBlue viability, NCC library compound at 0.1 µM, sheet "All Tox data"): 97.3 % DMSO | 1 µM (% DMSO) (expanded OPCs; alamarBlue viability, NCC library compound at 1 µM, sheet "All Tox data"): 107.0 % DMSO | 10 µM (% DMSO) (expanded OPCs; alamarBlue viability, NCC library compound at 10 µM, sheet "All Tox data"): 10.8 % DMSO

NCc1ccc(S(N)(=O)=O)cc1 [Mafenide]
activation at 2 µM [1, 7]: 28.6% | activation at 10 µM [1, 15]: 10% | 0.1 µM (% DMSO) (expanded OPCs; [8]): 97.9 % DMSO | 1 µM (% DMSO) (expanded OPCs; [9]): 90.1 % DMSO | 10 µM (% DMSO) (expanded OPCs; [10]): 86.7 % DMSO

Cc1occc(=O)c1O [Maltol]
activation at 2 µM [1, 16]: -7% | activation at 10 µM [1, 17]: 8.2% | viability at 0.1 µM (expanded OPCs; [3]): 83.5% | viability at 1 µM (expanded OPCs; [4]): 91.1% | viability at 10 µM (expanded OPCs; [5]): 84.9%

CNCCCC12CCC(c3ccccc31)c1ccccc12 [Maprotiline]
activation at 0.4 µM [1, 11]: 15.2% | activation at 2 µM [1, 2]: -52.5% | viability at 0.1 µM (expanded OPCs; [12]): 78.2% | viability at 1 µM (expanded OPCs; [13]): 54.1% | viability at 10 µM (expanded OPCs; [14]): 13.8%

COC(=O)Nc1nc2ccc(C(=O)c3ccccc3)cc2[nH]1 [Mebendazole]
activation at 0.08 µM [1, 18]: -29.9% | activation at 0.4 µM [1, 6]: -139% | 0.1 µM (% DMSO) (expanded OPCs; [8]): 47.2 % DMSO | 1 µM (% DMSO) (expanded OPCs; [9]): 53.6 % DMSO | 10 µM (% DMSO) (expanded OPCs; [10]): 45.7 % DMSO

Cc1cccc(CN2CCN(C(c3ccccc3)c3ccc(Cl)cc3)CC2)c1 (stereo not drawn) [Meclizine]
activation at 0.4 µM [1, 6]: 96.7% | 0.1 µM (% DMSO) (expanded OPCs; [8]): 143.0 % DMSO | 1 µM (% DMSO) (expanded OPCs; [9]): 107.8 % DMSO | 10 µM (% DMSO) (expanded OPCs; [10]): 9.1 % DMSO

Cc1ccc(Cl)c(Nc2ccccc2C(=O)O)c1Cl [Meclofenamic acid]
activation at 2 µM [1, 7]: 14.1% | activation at 10 µM [1, 15]: -2.1% | 0.1 µM (% DMSO) (expanded OPCs; [8]): 91.1 % DMSO | 1 µM (% DMSO) (expanded OPCs; [9]): 93.6 % DMSO | 10 µM (% DMSO) (expanded OPCs; [10]): 93.6 % DMSO

CC(=O)O[C@]1(C(C)=O)CC[C@H]2[C@@H]3C[C@H](C)C4=CC(=O)CC[C@]4(C)[C@H]3CC[C@@]21C [Medroxyprogesterone acetate]
activation at 2 µM [1, 16]: -30.5% | activation at 10 µM [1, 17]: -36.7% | 0.1 µM (% DMSO) (expanded OPCs; [8]): 104.2 % DMSO | 1 µM (% DMSO) (expanded OPCs; [9]): 103.1 % DMSO | 10 µM (% DMSO) (expanded OPCs; [10]): 118.4 % DMSO

CC(=O)[C@H]1CC[C@H]2[C@@H]3C[C@H](C)C4=CC(=O)CC[C@]4(C)[C@H]3[C@@H](O)C[C@]12C [Medrysone]
activation at 2 µM [1, 16]: -6% | activation at 10 µM [1, 17]: -16.5% | viability at 0.1 µM (expanded OPCs; [3]): 130% | viability at 1 µM (expanded OPCs; [4]): 125% | viability at 10 µM (expanded OPCs; [5]): 121%

Cc1cccc(Nc2ccccc2C(=O)O)c1C [Mefenamic Acid]
activation at 2 µM [1, 16]: -4% | activation at 10 µM [1, 17]: -22.3% | 0.1 µM (% DMSO) (expanded OPCs; [8]): 92.7 % DMSO | 1 µM (% DMSO) (expanded OPCs; [9]): 91.8 % DMSO | 10 µM (% DMSO) (expanded OPCs; [10]): 83.6 % DMSO

OC(c1cc(C(F)(F)F)nc2c(C(F)(F)F)cccc12)C1CCCCN1 (stereo not drawn) [Mefloquine]
activation at 0.08 µM [1, 18]: -20.5% | activation at 0.4 µM [1, 6]: -134% | 0.1 µM (% DMSO) (expanded OPCs; [8]): 39.0 % DMSO | 1 µM (% DMSO) (expanded OPCs; [9]): 11.0 % DMSO | 10 µM (% DMSO) (expanded OPCs; [10]): 7.4 % DMSO

Reference: PMC5011342, “A high throughput drug screening assay to identify compounds that promote oligodendrocyte differentiation using acutely dissociated and purified oligodendrocyte precursor cells” (BMC Research Notes, 2016)
